# Read-outs that look alike come from different tables or passages of the source.
# Tests used:
# [1] = tested on: patients with treatment-resistant depression; assay: Example 32: 8-week double-blind randomized placebo-controlled study, quetiapine added to SSRI/SNRI
# From the text: Pregnant or lactating women, or those who were planning on becoming pregnant were not allowed to participate either. Participation in a clinical research study within 90 days of the start of this study also precluded applicants from participating. […] The primary efficacy endpoint for this study was HAM-D score at Week 8. Secondary endpoints included: (1) response (≧50% reduction in HAM-D score) and remission (HAM-D score <7) rates; (2) final Montgomery-Asberg Rating Scale score (MADRS); (3) CGI-S scores; and (4) CGI-I scores. Efficacy was assessed at baseline, then at Weeks 1, 2, 3, 4, 6, and 8. Adverse events (AEs) were also monitored.
# [2] = tested on: patients with treatment resistant or non-remitted GAD
# From the text: The study population was limited to GAD patients who had not remitted following at least 8 weeks of therapeutic doses of conventional therapy. Conventional therapy includes treatment with one of the following: citalopram, escitalopram, paroxetine, paroxetine CR, venlafaxine XR, sertraline, mirtazapine, fluoxetine, fluvoxamine, or no medication at all. Each patient provided informed consent and was observed on an outpatient basis.
# The study population was comprised of patients between the ages of 22 and 61. Forty-eight percent of the study population was male and fifty-two percent was female. […] Patients with other psychiatric disorders, subjective suicidal tendencies, a Montgomery-Asberg Depression Rating Scale (MADRS) score >19, or serious medical conditions were excluded from the study. In addition, pregnant or lactating women and those who took medications prohibited by the study design (e.g., psychoactive substances and oral antipsychotics) within 2 weeks of the original screening were also excluded.
# The mean change from baseline to Week 12 in HAM-A total scores was the primary endpoint. […] These additional efficacy assessments were all measured from baseline to Week 12.
# patients with GAD [3] = conditions: hypothesis to be tested
# [4] = tested on: patients with major depression with prominent anxiety symptoms; assay: Example 33: double-blind randomized 8-week study, quetiapine augmentation of SSRIs/SNRIs
# Method: Patients were also evaluated according to the CGI-S scale for severity, the Global Assessment scale (GAS) and for adverse events (AEs). Patients were evaluated at baseline and at Weeks 1, 2, 4, 6, and 8. Response was defined as a ≧50% reduction in HAM-D or HAM-A total scores from baseline to Week 8. Remission was defined as a HAM-D or HAM-A total score of 7 or lower at Week 8.
# In order to be included in the study, patients had to have a DSM-IV diagnosis of major depression (HAM-D score ≧18), a CGI-S score ≧4, and a HAM-A score ≧14. […] Patients who had: (1) a current CNS disorder; (2) significant hepatic, renal or gastrointestinal impairment; (3) acute, unstable or significant and untreated medical conditions; (4) current substance abuse or dependence; or (5) were at risk for suicide were excluded. Pregnant or breast-feeding women were excluded also.
# patients with GAD [5] = conditions: hypothesis to be tested; remark: listed apart in the source
# [6] = adjunct to conventional therapy
# [7] = adjunct to conventional therapy, mean dose 386 mg/day
# [8] = depressive symptoms in GAD, vs placebo
# [9] = patient satisfaction, vs placebo
# [10] = response rate vs placebo, Day 57
compound,measurement,setting,value
"OCCOCCN1CCN(C2=Nc3ccccc3Sc3ccccc32)CC1 [quetiapine, 11-[4-[2-(2-hydroxyethoxy)ethyl]-1-piperazinyl]-dibenzo[b,f][1,4]thiazepine]",mean HAM-D score at study end,"[1]; added to SSRI/SNRI, Week 8, placebo about 15",about 8
same,mean MADRS score at study end,"[1]; added to SSRI/SNRI, placebo about 24",about 15
same,mean weight gain,[1]; in vivo,about 6 kg
same,most common side effects,[1]; in vivo,"fatigue, dry mouth, and sedation/somnolence"
same,patients who withdrew from the study due to serious adverse events,[1]; in vivo,No patients
same,tolerability,[1]; in vivo,generally well-tolerated
same,final mean CGI-I score,[1]; placebo 3.5,2.5
same,final mean CGI-S score,[1]; placebo 3.8,2.8
same,patients who achieved remission (HAM-D score <7),[1]; placebo 15%,43%
same,patients who responded to treatment (≧50% reduction in HAM-D score),[1]; placebo 27%,67%
same,Dysfunctional Beliefs and Attitudes about Sleep Scale (DBAS) mean at Week 12,[2]; [6],about 73
same,Dysfunctional Beliefs and Attitudes about Sleep Scale (DBAS) mean at baseline,[2]; [6],about 88
same,PSQI (sleep quality) baseline mean,[2]; [6],about 17
same,PSQI (sleep quality) mean in Week 12,[2]; [6],about 7
same,Penn State Worry Questionnaire (PSWQ) mean at Week 12,[2]; [6],about 44
same,Penn State Worry Questionnaire (PSWQ) mean at baseline,[2]; [6],about 53
same,mean HAM-A total score after 12 weeks of treatment,[2]; [7],about 9
same,mean HAM-A total score at baseline,[2]; [7],about 30
same,"improvement in mean Sheehan Disability Inventory (SDI) scores (work, family, social interactions)",[2]; baseline to Week 12,about 2
same,mean total weight gain and BMI,[2]; baseline to Week 12,slight increases
same,patients who entered the study reporting sedation as an adverse event,[2]; in vivo,Forty
same,serious adverse events,[2]; in vivo,no serious adverse events were reported
same,vital signs or laboratory assessments,[2]; in vivo,no clinically significant changes
same,patients who withdrew due to adverse events,[2]; of 50 patients eligible for inclusion,seven
same,patients who withdrew because of sedation,[2]; of the patients withdrawn for adverse events,five
same,"Somnolence: severity of AEs, time of first instance, withdrawals due to AE of somnolence",patients with GAD [3]; compared to placebo,"generally mild, occurs early in"
same,Change from randomization in MADRS total score at Day 57,patients with GAD [3]; [8],Quetiapine is more effective
same,Adverse events related to discontinuation; change in Discontinuation-Emergent Signs and Symptoms total score at Day 64 and Day 71,patients with GAD [3]; discontinuation symptoms,Quetiapine does not have
same,Change from normal to Clinically Important in Physical Examinations; Laboratory values; Vital signs; ECGs,patients with GAD [3]; once daily up to 300 mg/day,300 mg/day is safe and well
same,Change from randomization in Q-les-Q Item 15 (Satisfaction with medication) at Day 57,patients with GAD [3]; [9],Quetiapine is more effective
same,"Change from randomization in HAM-A total score, HAM-A psychic cluster, HAM-A somatic cluster and CGI-S score at Day 8","patients with GAD [3]; patients with GAD, Day 8",anti-anxiety effect by Day 8
same,Change from randomization in Q-les-Q total score and Q-les-Q Item 16 (Overall life satisfaction) at Day 57,"patients with GAD [3]; quality of life, vs placebo",Quetiapine is more effective
same,HAM-A Response (decrease from randomization total score of ≧50%) at Day 8,"patients with GAD [3]; response rate vs placebo, Day 8",Quetiapine has a greater
same,HAM-A Response (decrease from randomization total score of ≧50%) at Day 57,patients with GAD [3]; [10],Quetiapine has a greater
same,Adverse events of nausea or vomiting,patients with GAD [3]; vs placebo,placebo levels of nausea and
same,Adverse events related to EPS (including akathisia); change in SAS and BARS scores at Day 57,patients with GAD [3]; vs placebo,placebo levels of EPS
same,HAM-A Remission (HAM-A total score ≦7) at Day 57,"patients with GAD [3]; vs placebo, Day 57",Quetiapine is better than
same,"Change from randomization in CGI-S score, CGI-I (much or very much improved), HAM-A psychic cluster and HAMA somatic cluster at Day 57","patients with GAD [3]; vs placebo, across anxiety symptoms, Day 57",Quetiapine is more effective
same,mean HAM-A score at baseline,[4]; added to SSRI/SNRI,about 23
same,mean HAM-D score at baseline,[4]; added to SSRI/SNRI,about 23
same,mean HAM-A score after treatment,"[4]; added to SSRI/SNRI, 8 weeks",about 10
same,mean HAM-D score after treatment,"[4]; added to SSRI/SNRI, 8 weeks",about 12
same,mean improvement from baseline in HAM-A scores,"[4]; added to SSRI/SNRI, 8 weeks, placebo about 5",about 13
same,mean improvement from baseline in HAM-D scores,"[4]; added to SSRI/SNRI, 8 weeks, placebo about 5, mean dose 202 mg/day",about 11
same,CGI-S and GAS assessments,[4]; in vivo,significantly more effective than placebo
same,serious AEs,[4]; in vivo,no serious AEs were reported
same,patients with an increase in bodyweight ≧5 kg,[4]; no patients in the placebo group,6 patients
same,remission rate as assessed by HAM-A (total score of 7 or lower at Week 8),[4]; placebo 17%,41%
same,remission rate as assessed by HAM-D (total score of 7 or lower at Week 8),[4]; placebo 17%,31%
same,response rate as assessed by HAM-A (≧50% reduction to Week 8),[4]; placebo 28%,62%
same,response rate as assessed by HAM-D (≧50% reduction to Week 8),[4]; placebo 28%,48%
same,Adverse events of nausea or vomiting,patients with GAD [5]; compared to escitalopram,lower levels of nausea and
same,Incidence of withdrawals due to adverse events,patients with GAD [5]; compared to escitalopram,Quetiapine has similar
same,Sexual dysfunction: change from randomization in CSFQ total score at Day 57,patients with GAD [5]; compared to escitalopram,lower levels of sexual
same,"Somnolence: severity of AEs, time of first instance, withdrawals due to AE of somnolence",patients with GAD [5]; compared to placebo,"generally mild, occurs early in"
same,"Change from randomization in HAM-A total score, HAM-A psychic cluster, HAM-A somatic cluster and CGI-S score at Day 4","patients with GAD [5]; compared to placebo, Day 4",anti-anxiety effect by Day 4
same,Change from randomization in MADRS total score at Day 57,patients with GAD [5]; [8],Quetiapine is more effective
same,Adverse events related to discontinuation; change in Discontinuation-Emergent Signs and Symptoms total score at Day 64 and Day 71,patients with GAD [5]; discontinuation symptoms,Quetiapine does not have
same,Change from normal to Clinically Important in Physical Examinations; Laboratory values; Vital signs; ECGs,patients with GAD [5]; once daily up to 300 mg/day,300 mg/day is safe and well
same,Change from randomization in Q-les-Q Item 15 (Satisfaction with medication) at Day 57,patients with GAD [5]; [9],Quetiapine is more effective
same,Change from randomization in Q-les-Q total score and Q-les-Q Item 16 (Overall life satisfaction) at Day 57,"patients with GAD [5]; quality of life, vs placebo",Quetiapine is more effective
same,HAM-A Response (decrease from randomization total score of = 50%) at Day 4,"patients with GAD [5]; response rate vs placebo, Day 4",Quetiapine has a greater
same,HAM-A Response (decrease from randomization total score of = 50%) at Day 57,patients with GAD [5]; [10],Quetiapine has a greater

# Source: patent US20110319384A1, “Pharmaceutical Compositions” (priority 2005, published 2011)
